Laboratory results taken from EP0116255A2, “Treatment of migraine with N-alkyl-piperidinyl benzoate derivatives” (MERRELL DOW FRANCE ET CIE, priority 1982, dated 1984).
Like-named read-outs stand apart in the source and are kept apart here.

Tests used:
5-HT M-receptor [1] = molecular target: T1, 5-HT M-receptor (Oryctolagus cuniculus, UniProt A0A5F9C9J3); conditions: 5-HT M-receptor antagonism; values reported in the literature (J.R. Fozard et al., Eur. J. Pharmacol.); cited from earlier work
T1 sequence (A0A5F9C9J3 35-494): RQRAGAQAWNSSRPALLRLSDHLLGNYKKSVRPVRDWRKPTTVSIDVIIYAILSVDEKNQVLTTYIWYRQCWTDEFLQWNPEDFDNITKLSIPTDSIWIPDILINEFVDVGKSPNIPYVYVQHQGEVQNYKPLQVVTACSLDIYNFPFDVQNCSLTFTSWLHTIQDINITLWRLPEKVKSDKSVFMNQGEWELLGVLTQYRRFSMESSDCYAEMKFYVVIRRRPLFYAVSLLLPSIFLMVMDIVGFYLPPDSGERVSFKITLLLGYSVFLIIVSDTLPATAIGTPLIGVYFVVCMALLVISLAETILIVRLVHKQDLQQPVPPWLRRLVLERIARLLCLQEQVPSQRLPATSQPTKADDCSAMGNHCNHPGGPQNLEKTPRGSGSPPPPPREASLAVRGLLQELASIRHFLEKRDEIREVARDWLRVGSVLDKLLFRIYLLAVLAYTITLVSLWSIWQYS

[2] = test system: von Bezold-Jarisch reflex evoked by 5-HT; experiment: Antagonism of the von Bezold-Jarisch reflex evoked by 5-HT in the anaesthetised rat; assay type: in vivo; conditions: iv, anaesthetised male Sprague-Dawley rat, antagonist intravenously; for ED50: dose inhibiting the response to 5-HT (2µg/kg i.v.) by 50%
Excerpt: The activity of the compounds of Formula I against 5-HT can be assessed in vivo by measurement of the effect of the compound on the Von Bezold-Jarisch Reflex induced by 5-HT injected intravenously into the rat (see A.S. Paintal, Physiol. Rev. 53 (159-227), 1973). The transient cardiac slowing results arises from an increased efferent vagus activity arising from stimulation by 5-HT of sensory afferent fibres in and around the heart.
Antagonism of the von Bezold-Jarisch reflex evoked by 5-HT in the anaesthetised rat was measured for N-methyl-4-piperidinyl-3',5'-dimethylbenzoate (Compound A) and N-methyl-3-piperidinyl 3',5'-dimethylbenzoate (Compound B), using the following method: • Male Sprague-Dawley rats weighing 250-300 g are anaesthetized with urethane, 1.25 g/kg injected intraperitoneally and set up for recording blood pressure and heart rate as described in Fozard J.R et al., J. Cardiovasc. Pharmacol. 2, 229-245 (1980). A submaximal dose of 5-HT (2µg/kg) is given repeatedly into the cannulated jugular vein and changes in heart rate quantified. Antagonists are given intravenously and the doses required to just inhibit the response to 5-HT (threshold dose) or to inhibit the response to 5-HT by 50% (ED50) are determined.

5-HT M-receptor [3] = molecular target: T1, 5-HT M-receptor; experiment: pA2 against 5-HT in the isolated rabbit heart; conditions: negative logarithm of molar antagonist concentration reducing effect of twice the ED50 of 5-HT to that of the ED50
Experimental: The activity of the compounds against 5-HT can be assessed by determining their pA2 values in the isolated rabbit heart as described by J.R. Fozard et al Europ. J. Pharmacol. 59, 195-210 (1979). In the method described the molar concentration of antagonist which reduces the effects of twice the ED50 of 5-HT to that of the ED50 in the absence of antagonist is determined. The pA2 value is the negative logarithm of said molar concentrations.

Molecule	pA2 5-HT (5-HT M-receptor [1])	ED50 [2]	pA2 5-HT (5-HT M-receptor [3])	minimal effective dose ([2]; dose required to just inhibit the response to 5-HT (2µg/kg i.v.), read-out: THRESHOLD DOSE)
COC(=O)[C@H]1[C@@H](OC(=O)c2ccccc2)C[C@@H]2CC[C@H]1N2 [nor(-)cocaine]	7.7	–	–	–
Cc1cc(C)cc(C(=O)OC2CCN(C)CC2)c1 [Compound A, N-Methyl-4-piperidinyl-3',5'-dimethylbenzoate]	–	0.136 ± 0.022 mg/kg	8.1	–
CCN(CC)CCNC(=O)c1cc(Cl)c(N)cc1OC [metoclopramide]	7.2	0.408 ± 0.0809 mg/kg	–	0.233 ± 0.0663 mg/kg
tropyl benzoate	7.2	–	–	–
Cc1cc(C)cc(C(=O)OC2CCCN(C)C2)c1 (stereo not drawn) [Compound B, N-Methyl-3-piperidinyl-3',5'-dimethylbenzoate]	–	0.51 ± 0.116 mg/kg	7.3	–
